Source: ChEMBL document CHEMBL3763148, “Synthesis, structure elucidation, DNA-PK and PI3K and anti-cancer activity of 8- and 6-aryl-substituted-1-3-benzoxazines” (Eur J Med Chem, 2016)

What was measured:
[1] = target: Phosphatidylinositol 4,5-bisphosphate 3-kinase catalytic subunit gamma isoform (Homo sapiens) (UniProt P48736); experiment: Inhibition of PI3Kgamma (unknown origin) at 10 uM incubated for 60 mins by kinase-glo luminescence assay
[2] = target: T1, Phosphatidylinositol 4,5-bisphosphate 3-kinase catalytic subunit delta isoform (Homo sapiens, UniProt O00329); experiment: Inhibition of PI3Kdelta (unknown origin) incubated for 60 mins by kinase-glo luminescence assay
T1 sequence (O00329 whole entry): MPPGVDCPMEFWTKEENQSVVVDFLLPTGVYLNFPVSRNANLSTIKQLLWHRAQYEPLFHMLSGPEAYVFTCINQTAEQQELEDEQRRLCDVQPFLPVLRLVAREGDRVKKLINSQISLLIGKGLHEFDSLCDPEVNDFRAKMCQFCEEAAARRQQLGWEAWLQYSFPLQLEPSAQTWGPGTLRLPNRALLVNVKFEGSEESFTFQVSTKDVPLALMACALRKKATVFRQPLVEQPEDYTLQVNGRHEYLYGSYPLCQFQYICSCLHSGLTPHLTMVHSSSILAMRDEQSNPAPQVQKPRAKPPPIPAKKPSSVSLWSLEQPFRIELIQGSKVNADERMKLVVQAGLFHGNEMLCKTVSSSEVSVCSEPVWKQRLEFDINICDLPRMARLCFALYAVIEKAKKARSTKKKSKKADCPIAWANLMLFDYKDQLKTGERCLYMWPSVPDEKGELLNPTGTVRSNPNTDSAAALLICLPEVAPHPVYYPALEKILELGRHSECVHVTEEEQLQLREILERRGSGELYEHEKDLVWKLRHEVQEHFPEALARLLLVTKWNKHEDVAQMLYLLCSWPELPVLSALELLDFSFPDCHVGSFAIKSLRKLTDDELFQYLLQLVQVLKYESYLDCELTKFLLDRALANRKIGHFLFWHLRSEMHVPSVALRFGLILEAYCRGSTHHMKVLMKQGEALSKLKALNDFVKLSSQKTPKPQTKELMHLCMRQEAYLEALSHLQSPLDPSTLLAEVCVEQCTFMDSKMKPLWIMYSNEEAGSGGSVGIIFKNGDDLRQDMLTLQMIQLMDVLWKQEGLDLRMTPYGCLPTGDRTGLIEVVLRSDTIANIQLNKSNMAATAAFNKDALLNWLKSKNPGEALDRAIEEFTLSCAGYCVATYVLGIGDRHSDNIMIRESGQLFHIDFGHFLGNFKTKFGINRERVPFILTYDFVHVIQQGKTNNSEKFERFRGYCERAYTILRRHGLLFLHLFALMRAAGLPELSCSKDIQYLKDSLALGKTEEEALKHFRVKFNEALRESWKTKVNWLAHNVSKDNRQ

[3] = target: DNA-dependent protein kinase catalytic subunit (Homo sapiens, UniProt P78527); experiment: Inhibition of human DNA-PK using EPPLSQEAFADLWKK as substrate by HTRF assay
[4] = test system: K562; experiment: Cytotoxicity against human K562 cells assessed as cell growth inhibition at 10 uM after 48 hrs by SRB assay relative to control; format: functional; settings: K562, 48 h, read-out: GI
[5] = test system: SR; experiment: Cytotoxicity against human SR cells assessed as cell growth inhibition at 10 uM after 48 hrs by SRB assay relative to control; format: functional; settings: read-out: GI
[6] = Cytotoxicity against human HCT116 cells assessed as cell growth inhibition at 10 uM after 48 hrs by SRB assay relative to control; format: functional; settings: HCT-116, 48 h, read-out: GI
[7] = Cytotoxicity against human SW620 cells assessed as cell growth inhibition at 10 uM after 48 hrs by SRB assay relative to control; format: functional; settings: SW-620, 48 h, read-out: GI
[8] = Cytotoxicity against human SF295 cells assessed as cell growth inhibition at 10 uM after 48 hrs by SRB assay relative to control; format: functional; settings: SF-295, 48 h, read-out: GI
[9] = Cytotoxicity against human SF539 cells assessed as cell growth inhibition at 10 uM after 48 hrs by SRB assay relative to control; format: functional; settings: SF-539, 48 h, read-out: GI
[10] = Cytotoxicity against human SNB19 cells assessed as cell growth inhibition at 10 uM after 48 hrs by SRB assay relative to control; format: functional; settings: SNB-19, 48 h, read-out: GI
[11] = Cytotoxicity against human SNB75 cells assessed as cell growth inhibition at 10 uM after 48 hrs by SRB assay relative to control; format: functional; settings: SNB-75, 48 h, read-out: GI
[12] = test system: U-251; experiment: Cytotoxicity against human U251 cells assessed as cell growth inhibition at 10 uM after 48 hrs by SRB assay relative to control; format: functional; settings: U-251, 48 h, read-out: GI
[13] = Cytotoxicity against human LOXIMVI cells assessed as cell growth inhibition at 10 uM after 48 hrs by SRB assay relative to control; format: functional; settings: LOX IMVI, read-out: GI
[14] = test system: MDA-MB-435; experiment: Cytotoxicity against human MDA-MB-435 cells assessed as cell growth inhibition at 10 uM after 48 hrs by SRB assay relative to control; format: functional; settings: MDA-MB-435, 48 h, read-out: GI
[15] = Cytotoxicity against human UACC62 cells assessed as cell growth inhibition at 10 uM after 48 hrs by SRB assay relative to control; format: functional; settings: UACC-62, 48 h, read-out: GI
[16] = Cytotoxicity against human OVCAR4 cells assessed as cell growth inhibition at 10 uM after 48 hrs by SRB assay relative to control; format: functional; settings: OVCAR-4, 48 h, read-out: GI
[17] = Cytotoxicity against human NCI-ADR-RES cells assessed as cell growth inhibition at 10 uM after 48 hrs by SRB assay relative to control; format: functional; settings: read-out: GI
[18] = test system: ACHN; experiment: Cytotoxicity against human ACHN cells assessed as cell growth inhibition at 10 uM after 48 hrs by SRB assay relative to control; format: functional; settings: read-out: GI
[19] = test system: SN12C; experiment: Cytotoxicity against human SN12C cells assessed as cell growth inhibition at 10 uM after 48 hrs by SRB assay relative to control; format: functional; settings: read-out: GI
[20] = Cytotoxicity against human UO31 cells assessed as cell growth inhibition at 10 uM after 48 hrs by SRB assay relative to control; format: functional; settings: UO-31, 48 h, read-out: GI
[21] = Cytotoxicity against human DU145 cells assessed as cell growth inhibition at 10 uM after 48 hrs by SRB assay relative to control; format: functional; settings: DU-145, 48 h, read-out: GI
[22] = test system: MDA-MB-231; experiment: Cytotoxicity against human MDA-MB-231 cells assessed as cell growth inhibition at 10 uM after 48 hrs by SRB assay relative to control; format: functional; settings: MDA-MB-231, 48 h, read-out: GI
[23] = Cytotoxicity against human BT549 cells assessed as cell growth inhibition at 10 uM after 48 hrs by SRB assay relative to control; format: functional; settings: BT-549, 48 h, read-out: GI
[24] = test system: T47D; experiment: Cytotoxicity against human T47D cells assessed as cell growth inhibition at 10 uM after 48 hrs by SRB assay relative to control; format: functional; settings: read-out: GI
[25] = test system: MDA-MB-468; experiment: Cytotoxicity against human MDA-MB-468 cells assessed as cell growth inhibition at 10 uM after 48 hrs by SRB assay relative to control; format: functional; settings: MDA-MB-468, 48 h, read-out: GI

Sequence of DNA-dependent protein kinase catalytic subunit (P78527 whole entry): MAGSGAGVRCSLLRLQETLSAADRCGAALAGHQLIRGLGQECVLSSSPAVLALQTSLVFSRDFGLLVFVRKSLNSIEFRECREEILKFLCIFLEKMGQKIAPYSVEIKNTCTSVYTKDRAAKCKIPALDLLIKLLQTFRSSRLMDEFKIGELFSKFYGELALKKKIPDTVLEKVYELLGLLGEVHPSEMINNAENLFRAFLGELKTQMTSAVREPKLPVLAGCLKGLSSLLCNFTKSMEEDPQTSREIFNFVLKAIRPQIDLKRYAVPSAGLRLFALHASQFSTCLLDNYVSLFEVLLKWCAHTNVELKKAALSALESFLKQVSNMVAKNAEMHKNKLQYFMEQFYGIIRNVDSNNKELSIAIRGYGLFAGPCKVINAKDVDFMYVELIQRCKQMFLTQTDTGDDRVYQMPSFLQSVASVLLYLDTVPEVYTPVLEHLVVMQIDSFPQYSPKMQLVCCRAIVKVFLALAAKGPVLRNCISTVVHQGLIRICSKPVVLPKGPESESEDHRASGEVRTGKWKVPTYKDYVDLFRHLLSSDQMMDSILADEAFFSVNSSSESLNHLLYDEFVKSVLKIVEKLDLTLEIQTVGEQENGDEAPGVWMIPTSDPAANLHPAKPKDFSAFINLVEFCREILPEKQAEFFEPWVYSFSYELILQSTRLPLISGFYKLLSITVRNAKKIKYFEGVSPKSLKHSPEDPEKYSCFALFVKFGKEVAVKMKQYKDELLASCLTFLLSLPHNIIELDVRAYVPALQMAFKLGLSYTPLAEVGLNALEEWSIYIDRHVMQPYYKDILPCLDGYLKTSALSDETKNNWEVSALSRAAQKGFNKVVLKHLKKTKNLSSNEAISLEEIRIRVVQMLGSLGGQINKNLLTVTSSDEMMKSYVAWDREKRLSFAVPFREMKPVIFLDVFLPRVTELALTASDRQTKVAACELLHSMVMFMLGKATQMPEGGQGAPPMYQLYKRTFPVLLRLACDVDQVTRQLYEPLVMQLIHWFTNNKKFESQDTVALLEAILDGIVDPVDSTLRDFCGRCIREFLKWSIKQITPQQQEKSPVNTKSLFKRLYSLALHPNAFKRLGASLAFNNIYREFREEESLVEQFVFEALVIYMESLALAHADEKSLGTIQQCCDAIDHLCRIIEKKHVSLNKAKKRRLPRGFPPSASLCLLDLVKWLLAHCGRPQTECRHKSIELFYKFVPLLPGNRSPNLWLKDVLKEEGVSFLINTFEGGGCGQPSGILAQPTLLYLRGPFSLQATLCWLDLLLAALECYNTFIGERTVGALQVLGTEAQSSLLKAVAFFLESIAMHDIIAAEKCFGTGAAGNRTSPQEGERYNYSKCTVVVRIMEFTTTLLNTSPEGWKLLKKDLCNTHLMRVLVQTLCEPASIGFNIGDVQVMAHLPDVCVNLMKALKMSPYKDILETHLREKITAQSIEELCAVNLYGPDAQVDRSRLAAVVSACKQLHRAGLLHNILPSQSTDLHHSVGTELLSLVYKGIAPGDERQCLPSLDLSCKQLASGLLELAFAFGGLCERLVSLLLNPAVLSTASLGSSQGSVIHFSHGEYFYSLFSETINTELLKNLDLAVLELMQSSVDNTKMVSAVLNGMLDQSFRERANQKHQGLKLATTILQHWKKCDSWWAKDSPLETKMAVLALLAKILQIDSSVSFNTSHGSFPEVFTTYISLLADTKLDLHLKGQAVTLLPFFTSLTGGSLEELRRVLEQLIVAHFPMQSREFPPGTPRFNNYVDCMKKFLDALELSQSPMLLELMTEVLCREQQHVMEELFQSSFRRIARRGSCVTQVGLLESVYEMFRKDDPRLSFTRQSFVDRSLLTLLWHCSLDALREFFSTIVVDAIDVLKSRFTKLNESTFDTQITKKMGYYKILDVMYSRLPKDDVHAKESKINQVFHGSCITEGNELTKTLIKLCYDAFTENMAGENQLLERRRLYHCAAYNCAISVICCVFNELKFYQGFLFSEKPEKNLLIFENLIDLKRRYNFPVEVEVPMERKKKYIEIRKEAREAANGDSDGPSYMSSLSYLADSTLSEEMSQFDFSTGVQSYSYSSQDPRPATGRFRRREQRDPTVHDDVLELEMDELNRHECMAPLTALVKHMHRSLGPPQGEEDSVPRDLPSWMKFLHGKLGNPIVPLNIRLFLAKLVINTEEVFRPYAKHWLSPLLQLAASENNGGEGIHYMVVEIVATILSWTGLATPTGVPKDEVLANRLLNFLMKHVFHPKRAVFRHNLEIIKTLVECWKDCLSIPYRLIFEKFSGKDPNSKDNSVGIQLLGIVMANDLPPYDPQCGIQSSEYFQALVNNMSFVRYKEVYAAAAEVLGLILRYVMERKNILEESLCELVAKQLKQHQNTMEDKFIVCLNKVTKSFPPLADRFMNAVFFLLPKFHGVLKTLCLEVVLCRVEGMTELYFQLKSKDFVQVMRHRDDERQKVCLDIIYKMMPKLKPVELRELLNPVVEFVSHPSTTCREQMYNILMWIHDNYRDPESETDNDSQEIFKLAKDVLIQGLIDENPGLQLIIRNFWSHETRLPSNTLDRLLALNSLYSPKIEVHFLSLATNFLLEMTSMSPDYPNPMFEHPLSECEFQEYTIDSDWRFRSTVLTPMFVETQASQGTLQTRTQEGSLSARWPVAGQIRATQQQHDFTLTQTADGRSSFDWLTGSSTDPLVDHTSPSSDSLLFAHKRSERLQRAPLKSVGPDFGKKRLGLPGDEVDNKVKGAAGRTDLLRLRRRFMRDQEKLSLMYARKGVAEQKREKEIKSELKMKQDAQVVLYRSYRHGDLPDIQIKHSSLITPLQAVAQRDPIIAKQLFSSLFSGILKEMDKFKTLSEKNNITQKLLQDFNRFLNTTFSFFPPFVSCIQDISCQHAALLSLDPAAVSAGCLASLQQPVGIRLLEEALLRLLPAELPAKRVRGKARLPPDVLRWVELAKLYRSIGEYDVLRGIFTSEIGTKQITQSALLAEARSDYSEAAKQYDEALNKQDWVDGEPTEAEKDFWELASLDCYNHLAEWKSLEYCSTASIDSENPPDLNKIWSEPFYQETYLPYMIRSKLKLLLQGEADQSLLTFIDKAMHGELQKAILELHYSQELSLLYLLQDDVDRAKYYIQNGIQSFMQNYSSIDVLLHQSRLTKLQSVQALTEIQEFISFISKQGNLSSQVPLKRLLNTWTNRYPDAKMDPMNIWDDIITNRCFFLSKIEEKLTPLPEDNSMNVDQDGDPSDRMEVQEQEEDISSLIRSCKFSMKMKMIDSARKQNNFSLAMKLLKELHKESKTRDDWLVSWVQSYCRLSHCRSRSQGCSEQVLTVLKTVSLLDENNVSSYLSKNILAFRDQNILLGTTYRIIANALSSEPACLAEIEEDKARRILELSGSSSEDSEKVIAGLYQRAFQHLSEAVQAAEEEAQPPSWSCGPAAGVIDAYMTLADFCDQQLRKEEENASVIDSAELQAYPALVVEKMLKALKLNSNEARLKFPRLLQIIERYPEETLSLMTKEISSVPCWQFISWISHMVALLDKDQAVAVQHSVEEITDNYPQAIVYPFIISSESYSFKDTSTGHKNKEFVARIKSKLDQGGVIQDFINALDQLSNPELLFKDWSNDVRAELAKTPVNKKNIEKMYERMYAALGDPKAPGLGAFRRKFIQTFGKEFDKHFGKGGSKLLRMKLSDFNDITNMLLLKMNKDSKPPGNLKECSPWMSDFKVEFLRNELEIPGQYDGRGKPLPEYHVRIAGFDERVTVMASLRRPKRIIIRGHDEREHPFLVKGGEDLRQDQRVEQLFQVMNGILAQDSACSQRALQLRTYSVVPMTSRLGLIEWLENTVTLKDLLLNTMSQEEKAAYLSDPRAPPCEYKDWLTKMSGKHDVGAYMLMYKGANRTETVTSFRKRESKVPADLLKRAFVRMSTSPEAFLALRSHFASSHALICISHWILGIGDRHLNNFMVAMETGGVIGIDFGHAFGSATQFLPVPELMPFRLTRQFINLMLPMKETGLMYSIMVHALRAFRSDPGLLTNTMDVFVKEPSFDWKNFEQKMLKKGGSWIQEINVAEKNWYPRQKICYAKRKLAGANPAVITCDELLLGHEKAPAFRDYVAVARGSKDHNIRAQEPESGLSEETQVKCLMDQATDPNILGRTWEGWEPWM

Compound	inhibition [1] [%]	inhibition of growth at 10 µM [4] [%]	inhibition of growth at 10 µM [5] [%]	inhibition of growth at 10 µM [6] [%]	inhibition of growth at 10 µM [7] [%]	inhibition of growth at 10 µM [8] [%]	inhibition of growth at 10 µM [9] [%]	inhibition of growth at 10 µM [10] [%]	inhibition of growth at 10 µM [11] [%]	inhibition of growth at 10 µM [12] [%]	inhibition of growth at 10 µM [13] [%]	inhibition of growth at 10 µM [14] [%]	inhibition of growth at 10 µM [15] [%]	inhibition of growth at 10 µM [16] [%]	inhibition of growth at 10 µM [17] [%]	inhibition of growth at 10 µM [18] [%]	inhibition of growth at 10 µM [19] [%]	inhibition of growth at 10 µM [20] [%]	inhibition of growth at 10 µM [21] [%]	inhibition of growth at 10 µM [22] [%]	other results
O=c1nc(N2CCOCC2)oc2c(-c3cccs3)cccc12	16	0.8	18	2.65	1.09	-0.99	1.52	5.86	32.7	4.68	14.4	-0.12	20.9	2.16	11	2.88	-3.08	20.2	-2.35	-6.21	IC50 [2]: 4.5 µM; IC50 [3]: 7.12 µM; inhibition of growth at 10 µM [23]: 14.5%; inhibition of growth at 10 µM [24]: 17.8%; inhibition of growth at 10 µM [25]: 20.3%
O=c1nc(N2CCOCC2)oc2c(-c3cccc4c3sc3ccccc34)cccc12	27	20.6	50.9	18.7	5.95	11	15.1	18.5	53	17.8	21.3	4.77	45.6	7.25	19.2	22.3	18	52	5.8	29.5	IC50 [2]: 8.5 µM; IC50 [3]: 0.034 µM; inhibition of growth at 10 µM [23]: 13.6%; inhibition of growth at 10 µM [24]: 42.8%; inhibition of growth at 10 µM [25]: 26.2%
O=c1nc(N2CCOCC2)oc2c(-c3ccsc3)cccc12	29	-1.04	21.9	2.6	2.66	17.1	-6.9	-3.77	38.8	8.75	10.6	3.77	31.4	3.41	13.3	2.44	9.14	23.4	0.16	6.78	IC50 [2]: 4.8 µM; IC50 [3]: 9.8 µM; inhibition of growth at 10 µM [23]: 4.54%; inhibition of growth at 10 µM [24]: 26.5%; inhibition of growth at 10 µM [25]: 15%
O=c1nc(N2CCOCC2)oc2ccc(-c3cccc4c3sc3ccccc34)cc12	0	10.7	19.5	8.17	5.25	0.5	0.05	4.68	10.5	6.66	1.76	1.87	12.6	2.78	2.44	-1.95	6.33	1.02	-3.21	12.8	inhibition of growth at 10 µM [23]: 4.62%; inhibition of growth at 10 µM [24]: 16.6%; inhibition of growth at 10 µM [25]: 20%
